According to patent US20260048040A1, “MTA-COOPERATIVE PRMT5 INHIBITORS FOR USE IN THE TREATMENT OF CANCER” (ASTRAZENECA AB, priority 2022, published 2026):
Read-outs that look alike come from different tables or passages of the source.

Key:
L540 cells = assay: Proliferation assay, L540 Hodgkin Lymphoma cells (CellTiter Glo); format: cell-based; settings: Homo sapiens
Method: (§1) For the Hodgkin Lymphoma cell lines L428, L540, L1236, HDLM2 and KM-H2 (purchased from DSMZ, http://www.dsmz.de): Assay Ready Plates were prepared by adding compounds to 384-well plates (Corning #3712) using Echo Liquid Handler. On day 0, 1200 cells/well of L428, L540, or KMH2 cells in 60 μl of growth media (RPMI1640+10% FBS+1% L-Glu+1% P/S) were dispensed into the Assay Ready Plates, 10 μM as final top concentration, with 1:3 dilution, and 10 doses total. The same volume was also dispensed into 1 empty plate for Day 0 control plate. 30 μl/well of CellTiter Glo reagent (Promega #7573) was added into Day 0 plate, incubate at room temperature for 20 min in dark, Measure luminescence on plate reader Tecan M200 using 100 ms integration time, Oms attenuation and settle times. The assay plates were incubated for 7 days in incubator with 37° C., 90% humidity, 5% CO2. Luminescence was measured as Day 0 control plate. IC50 was calculated using GraphPad Prism 8 with Nonlinear regression (curve fit) analysis.

[1] = test system: MTAP knock out (KO) HCT116 cells; assay: Proliferation assay, HCT116 MTAP knock out cells (Alamar Blue); format: cell-based; settings: Homo sapiens, HCT-116; HCT116, MTAP status KO, MTAP mRNA level low; average values from two or more experiments
Method: (§2) For the HCT116 isogenic cell line (the parental model purchased from ATCC, the MTAP KO clone generated in-house using CRISPR technology): Cells were harvested to a density of 400 cells per well (McCoys 5A+10% FCS+1% Glutamax), 40 μl/well seeded into 384-well plates (Greiner, Kremsmunster, Austria; 781090) using a Multidrop Combi. For Day 0 plates immediately add 4 μl Alamar Blue reagent (Thermo; DAL1100) using a multidrop combi and incubate for 3 h at 37° C., 5% CO2. Day 0 cell plates were measured using Envision plate reader with fluorescence excitation wavelength of 540-570 nm (peak excitation is 570 nm), fluorescence emission at 580-610 nm (peak emission is 585 nm). Test compounds were added using an Echo 555 and placed in incubator at 37° C., 5% CO2 and incubated for 4 more days. […], add 4 μl Alamar Blue reagent using a Multidrop Combi and incubate for 3 h at 37° C., 5% CO2. Day 4 cell plates were measured using EnVision plate reader with fluorescence excitation wavelength of 540-570 nm, fluorescence emission at 580-610 nm. The rate of proliferation (IC50 values) was determined using Genedata screener software by assessing the total cell number from the Envision plate reader for Day 0 and Day 4 plates.

L428 cells = assay: Proliferation assay, L428 Hodgkin Lymphoma cells (CellTiter Glo); format: cell-based; settings: Homo sapiens
Method: as §1

[2] = test system: wild type (wt) HCT116 cells; assay: Proliferation assay, HCT116 wild type cells (Alamar Blue); format: cell-based; settings: Homo sapiens, HCT-116; HCT116, MTAP status wt, MTAP mRNA level high; average values from two or more experiments
Method: as §2

L1236 cells = assay: Proliferation assay, L1236 Hodgkin Lymphoma cells (CellTiter Glo); format: cell-based
Method: as §1

HDLM2 cells = assay: Proliferation assay, HDLM2 Hodgkin Lymphoma cells (CellTiter Glo); format: cell-based; settings: Homo sapiens
Method: as §1
Alternatively, for HDLM2 (purchased from DSMZ): Cells were grown as […] cells in growth media (phenol red free RPMI+10% FCS+2 mM glutamine). Cells were seeded into 96-well clear-bottomed black tissue-culture treated plates at 1000 cells/well in 90 μl growth media and placed in an incubator at 37° C., 5% CO2. Compound was obtained in solution from the liquid bank at a concentration of 10 mM in DMSO then half-log serial dilutions performed in DMSO to make ×1000 fold stock solutions. Concentrations were then diluted 1 in 10 in DMSO followed by 1 in 10 in growth media to give an addition plate at x^10 final concentration in 10% DMSO. 10 μl compound was then added to 90 μl cell (1 in 10 dilution) to give a concentration range of 0.1 nM to 10 μM in 1% DMSO. CellTiter Glo readings were taken at the point of dosing and at 6 days. […] Read luminescence on Envision F (ultrasensitive luminescence 96-well protocol with 384 well aperture). IC50 was calculated using GraphPad Prism 8 with Nonlinear regression (curve fit) analysis.

[3] = test system: MTAP silenced L540 HL xenograft; assay: Tumor growth inhibition in L540 HL xenograft model; format: in vivo, Mouse (Mus Musculus); settings: for TGI (%): 21 days of dosing, TGI measured day 21 (end of treatment), NOD/SCID mice
Method: (§3) This study was performed to evaluate tumor growth inhibition and pharmacodynamic changes following treatment with the MTA synergistic PRMT5 inhibitor Compound C in the MTAP silenced L540 HL xenograft model. Three doses of Compound C (Dose Level 1, Dose Level 2 and Dose Level 3) were tested. Pharmacodynamic changes were assessed by western blot for a decrease in SDMA (marker of target engagement) following treatment with Compound C.
Xenografts were established by subcutaneous (SC) injection of 5×10^e6 cells suspended in 0.1 mL of PBS into the right front flank of 6-to 8-week-old animals. Tumors were allowed to reach 100-200 mm^3 before randomization. Tumors were measured by calliper and the volumes of tumors were calculated using the following formula: Volume (mm3)=(Tumor Length)×(Tumor width)×(Tumor width)/2 Tumor length (the longest tumor dimension); Tumor width (the longest tumor dimension perpendicular to length).
Animals were randomized into groups based on the size of the tumor. Randomization was performed based on “Matched distribution” method (StudyDirector™ software, version 3.1.399.19). The date of randomization is denoted as Day 0. There were no animal substitutions.
(§4) Control animals were dosed with vehicle (5% v/v DMSO/20% v/v Kolliphor HS15/75% v/v purified water (pH 3.0-3.2)) PO, and vehicle and Compound C treated animals were dosed according to Table 6. Dosing was initiated 1 day upon selection and randomization. On day 21 of dosing, all animals from each received the last dose in the morning. Mice were necropsied 6 h later and flash frozen tumors were collected for PD analysis.
(§5) • Tumors were measured twice weekly by caliper, and the volumes of tumors were calculated using the formula: Volume (mm^3)=(Tumor Length)×(Tumor width)×(Tumor width)/2 • Relative tumor volume (RTV) was calculated using the formula: RTV for day X=(Tumour volume on day X)/(Tumour volume on day 0) • The anti-cancer effect of Compound C was expressed as percent of tumor growth inhibition (TGI) calculated on last day of the study using the formula: • Percentage TGI on day X for treatment group=(((Geomean RTV Vehicle day X)−(Geomean RTV Treatment group day X))/((Geomean RTV Vehicle on day X)−1)×100 • Animals were weighted daily for the dosing phase and twice weekly for all other phases. Percentage of body weight change was calculated using the formula: Percentage body weight change on day X=(((Body weight day X)−(Body weight day of select)×100))
Tumor volumes were plotted as geometric means with SEM. Percentage of body weight change was plotted as means with SEM. Significant p-values for TGI relative to vehicle treated controls (relative tumor volumes) at the last day of treatment, were obtained from a Mann-Whitney one-tailed test, and calculated by GraphPad Prism 8.4.3

[4] = Tolerability / body weight in L540 HL xenograft model; format: in vivo, Mouse (Mus Musculus); settings: all doses tested, PO, 21 days
Method: as §4, §5
Tumor volumes were plotted as geometric means with SEM. Percentage of body weight change was plotted as means with SEM. […]

[5] = test system: SDMA (marker of target engagement); assay: Pharmacodynamic analysis: SDMA western blot in L540 xenograft tumors; format: in vivo, Mouse (Mus Musculus); settings: tumors collected 6 h after last dose on day 21, western blot normalized to vinculin
Method: as §3, §4
To determine levels of protein of interest in tumor samples, snap frozen tumor fragments at the end of the PD study were used and protein extracted by adding 600-1000 μl lysis buffer for small and large tumors, respectively. […] Lysates were transferred to a deepwell plate, and protein in the supernatant measured using BCA normalisation method (Thermofisher, #23225). […] The membranes were washed three times for 15 minutes each in 20 ml of TBST, and signal was detected using chemiluminescent SuperSignal West Dura extended duration substrate (Thermofisher, #34075) and quantified using Syngene software. The 30 kDa molecular weight band of PRMT5's substrate, SDMA, was quantified using Syngene software. The 110 kDa molecular weight band of vinculin was also quantified. […]
Primary analysis was carried out using Excel, where raw data was firstly normalised to vinculin, secondly to the geomean of vehicle control and then multiplied by 100. […] Significant p-values, if any, obtained from the ANOVA test, were quantified using GraphPad Prism 8.4.3.

[6] = L-540, L540, MTAP status wt, MTAP mRNA level low, average values from two or more experiments, read-out: IC50, proliferation
[7] = L-428, L428, MTAP status wt, MTAP mRNA level high, average values from two or more experiments, read-out: IC50, proliferation
[8] = L-1236, L1236, MTAP status wt, MTAP mRNA level low, average values from two or more experiments, read-out: IC50, proliferation
[9] = HDLM-2, HDLM2, MTAP status wt, MTAP mRNA level low, average values from two or more experiments, read-out: IC50, proliferation

SMILES	IC50 (L540 cells; [6]) [nM]	IC50 [1] [nM]	IC50 (L428 cells; [7]) [nM]	IC50 [2] [nM]	IC50 (L1236 cells; [8]) [nM]	IC50 (HDLM2 cells; [9]) [nM]	TGI (%) ([3]; Dose Level 1, PO)	TGI (%) ([3]; Dose Level 2, PO)	TGI (%) ([3]; Dose Level 3, PO)	Inhibition of tumour growth in vivo (in words) ([3]; Dose Levels 1-3, PO, L540 HL xenograft)	Body weight loss during the treatment period compared to vehicle-treated group [4]	Tolerability [4]	IC50 (L540 cells; L-540, read-out: IC50, proliferation) [nM]	Percentage Inhibition of SDMA ([5]; Dose Level 1, PO) [%]	Percentage Inhibition of SDMA ([5]; Dose Level 2, PO) [%]	Percentage Inhibition of SDMA ([5]; Dose Level 3, PO) [%]	IC50 (L428 cells; L-428, read-out: IC50, proliferation) [nM]	IC50 (L1236 cells; L-1236, read-out: IC50, proliferation) [nM]	IC50 (HDLM2 cells; HDLM-2, read-out: IC50, proliferation) [nM]
Nc1nc2cc(CN3C(=O)c4cc(F)ccc4[C@]34CCN(Cc3ccc(F)cc3)C4=O)[nH]c2cc1F [Compound A, (S)-2-((5-Amino-6-fluoro-1H-pyrrolo[3,2-b]pyridin-2-yl)methyl)-5-fluoro-1′-(4-fluorobenzyl)spiro[isoindoline-1,3′-pyrrolidine]-2′,3-dione]	247	158	2520	> 20000	67	39	–	–	–	–	–	–	–	–	–	–	–	–	–
CC(=O)N1CCC(Nc2cc(C(=O)NC[C@H](O)CN3CCc4ccccc4C3)ncn2)CC1 [Compound B, reference compound]	157	74	583	75	14	93	–	–	–	–	–	–	–	–	–	–	–	–	–
CC#CCN1CC[C@@]2(C1=O)c1ccc(F)cc1C(=O)N2Cc1cc2nc(N)c(F)cc2[nH]1 [Compound C, (S)-2-((5-Amino-6-fluoro-1H-pyrrolo[3,2-b]pyridin-2-yl)methyl)-1′-(but-2-yn-1-yl)-5-fluorospiro[isoindoline-1,3′-pyrrolidine]-2′,3-dione]	–	170	–	8540	–	–	22	52	93	dose-dependent efficacy	no significant body weight loss	well tolerated	252	83.9	97.6	99.1	4640	77	827
